From the NIST ThermoML archive (doi:10.1021/je201334p) come the findings set out here.

The nature of data set [1]: refractive index (Na D-line) (dimensionless). As to conditions: Liquid, Standard Abbe refractometry.
The conditions of data set [2]: 101 kPa, Liquid; for speed of sound: Sing-around technique in a fixed-path interferometer; for mass density: Vibrating tube method.
Data set [3] in a line: molar heat capacity at constant pressure. The note with it: 101.33 kPa, Liquid, Small sample (50 mg) DSC.

Numbers after ± are expanded uncertainties.

As to `CCCC[n+]1cccc(C)c1.O=S(=O)([O-])C(F)(F)F` [1-butyl-3-methylpyridinium trifluoromethanesulfonate], the refractive index (commonly the speed of light in vacuum divided by its phase velocity in the sample) was determined as 1.46446 ± 0.00053 in data set [1] (288.15 K, 101 kPa); 1.46446 ± 0.00053 in data set [1] (288.15 K, 101.33 kPa); 1.46155 ± 0.00053 in data set [1] (298.15 K, 101 kPa); 1.46155 ± 0.00053 in data set [1] (298.15 K, 101.33 kPa); 1.45868 ± 0.00053 in data set [1] (308.15 K, 101 kPa); 1.45868 ± 0.00053 in data set [1] (308.15 K, 101.33 kPa). Besides, the results for the speed of sound in data set [2] (288.15 K), in data set [2] (298.15 K) and in data set [2] (308.15 K) were 1436.1 ± 1.4 m/s, 1412.3 ± 1.4 m/s and 1389.6 ± 1.4 m/s, respectively. Further, the figures for the mass density in data set [2] (288.15 K), in data set [2] (298.15 K) and in data set [2] (308.15 K) were 1287.07 ± 0.61 kg/m3, 1279.41 ± 0.6 kg/m3 and 1271.8 ± 0.59 kg/m3, respectively. Moreover, the “molar heat capacity at constant pressure” value in data set [3] (288.15 K) is given as 496 ± 10 J/K/mol; in data set [3] (298.15 K), 520 ± 10 J/K/mol; in data set [3] (308.15 K), 535 ± 11 J/K/mol.

With `CCCC[N+]1(C)CCCC1.N#CN=C=[N-]` [1-butyl-1-methylpyrrolidinium dicyanamide], the refractive index in data set [1] (288.15 K, 101 kPa) was 1.49968 ± 0.00063; in data set [1] (288.15 K, 101.33 kPa) it was 1.49968 ± 0.00063; in data set [1] (298.15 K, 101 kPa), 1.49681 ± 0.00063; in data set [1] (298.15 K, 101.33 kPa), 1.49681 ± 0.00063; in data set [1] (308.15 K, 101 kPa) it was 1.49392 ± 0.00064; in data set [1] (308.15 K, 101.33 kPa), 1.49392 ± 0.00064. The speed of sound (commonly the propagation velocity of pressure waves in the medium) came to 1836.9 ± 2.3 m/s in data set [2] (288.15 K), 1811.1 ± 2.3 m/s in data set [2] (298.15 K) and 1781.9 ± 2.3 m/s in data set [2] (308.15 K). The mass density (in general, the mass of a sample divided by its volume) in data set [2] (288.15 K) stood at 1019.17 ± 1.1 kg/m3; in data set [2] (298.15 K), 1013.53 ± 1.1 kg/m3; in data set [2] (308.15 K), 1007.93 ± 1.1 kg/m3. The results for the “molar heat capacity at constant pressure” value in data set [3] (288.15 K), in data set [3] (298.15 K) and in data set [3] (308.15 K) were 473 ± 9 J/K/mol, 502 ± 10 J/K/mol and 521 ± 10 J/K/mol, respectively.

In the case of `COS(=O)(=O)[O-].C[n+]1ccccc1` [1-methylpyridinium methylsulfate], the refractive index in data set [1] (288.15 K, 101 kPa) came out at 1.51603 ± 0.00052; in data set [1] (288.15 K, 101.33 kPa) it was 1.51603 ± 0.00052; in data set [1] (298.15 K, 101 kPa), 1.5134 ± 0.00052; in data set [1] (298.15 K, 101.33 kPa), 1.5134 ± 0.00052; in data set [1] (308.15 K, 101 kPa), 1.51077 ± 0.00052; in data set [1] (308.15 K, 101.33 kPa) it was 1.51077 ± 0.00052. The speed of sound is 1901.1 ± 1.5 m/s in data set [2] (288.15 K), 1875.8 ± 1.5 m/s in data set [2] (298.15 K) and 1852.4 ± 1.5 m/s in data set [2] (308.15 K). The values for the mass density in data set [2] (288.15 K), in data set [2] (298.15 K) and in data set [2] (308.15 K) were 1352.86 ± 0.69 kg/m3, 1346.12 ± 0.68 kg/m3 and 1339.37 ± 0.67 kg/m3, respectively. In addition, the “molar heat capacity at constant pressure” value in data set [3] (288.15 K) was 288 ± 6 J/K/mol; in data set [3] (298.15 K), 299 ± 6 J/K/mol; in data set [3] (308.15 K), 305 ± 6 J/K/mol.
